Experimental findings from ChEMBL document CHEMBL3272350, “Drugs derived from cannabinoids. 4. Effect of alkyl substitution in sulfur and carbocyclic analogs” (J Med Chem, 1976) are described below.

For orientation: ED50 means the dose at which the effect has come halfway, by size or by number of responders. What is called LD50 is the dose expected to kill half of the subjects tested.

The source made the active and inactive calls.

The subject of data set [1] is Mus musculus. Put plainly: Antidepressant activity in mouse assessed as potentiation of dopa-induced motor responses at 5 mg/kg, po pretreated with compound followed by dopa challenge for 4 hrs. Further details: dose 5 mg/kg. It counts as functional, organism-based.
The subject of data set [2] is Mus musculus. Nature of the data set: Anticonvulsant activity in mouse assessed as protection against audiogenic seizure at 10 mg/kg, po administered for 1 hr prior to testing relative to control. It counts as functional.
Data set [3] deals with Mus musculus. Put plainly: Antianxiety activity in albino BALB/cJ mouse assessed as reduction of footshock-induced fighting behavior at 10 mg/kg, po after 90 mins relative to control. It counts as functional. Further details: scale not given: the % may be the effect or the level left.
In data set [4] the test system is Mus musculus. Put plainly: Analgesic activity in po dosed mouse assessed as inhibition of acetic acid-induced writhing administered 30 mins prior to acetic acid challenge measured after 5 mins for 20 mins. It counts as functional.
For data set [5], the system named is Mus musculus. Put plainly: Analgesic activity in po dosed mouse by hot-plate test. It counts as functional. On the technique in general: Hot-plate and tail-flick tests time the reaction to a heat stimulus.
In data set [6] the test system is Felis catus. Put plainly: Sedative-hypnotic activity in cat assessed as increase in total sleep time at 2 mg/kg, po administered with diet for 15 to 20 mins measured for 14 hrs. It counts as functional.
Data set [7] relates to Felis catus. Nature of the data set: Sedative-hypnotic activity in cat assessed as increase in total sleep time at 0.5 mg/kg, po administered with diet for 15 to 20 mins measured for 14 hrs. It counts as functional.
Data set [8] relates to Canis familiaris. Put plainly: Antianxiety activity in dog assessed as decrease in reactivity at 1 mg/kg, po administered as single dose measured every 15 mins for 24 hrs. It counts as functional, organism-based. Details: dose 1 mg/kg. The settings on record: Canis lupus familiaris.
In data set [9] the test system is Canis familiaris. Nature of the data set: Antianxiety activity in dog assessed as decrease in reactivity and ataxia at 10 mg/kg, po administered as single dose measured every 15 mins for 24 hrs. It counts as functional, organism-based. Details: dose 10 mg/kg. The settings on record: Canis lupus familiaris.
A short description of data set [10]: Acute toxicity in po dosed Swiss-Webster mouse assessed as mortality measured for 7 days. It counts as organism-based. The settings on record: in vivo.
Data set [11] relates to Felis catus. Nature of the data set: Sedative-hypnotic activity in cat assessed as increase in total sleep time at 0.1 mg/kg, po administered with diet for 15 to 20 mins measured for 14 hrs. It counts as functional.
The subject of data set [12] is Felis catus. Put plainly: Sedative-hypnotic activity in cat assessed as increase in total sleep time at 0.25 mg/kg, po administered with diet for 15 to 20 mins measured for 14 hrs. It counts as functional.
Data set [13] relates to Canis familiaris. Put plainly: Antianxiety activity in dog assessed as decrease in reactivity and ataxia at 0.1 mg/kg, po administered as single dose measured every 15 mins for 24 hrs. Details: dose 0.1 mg/kg. The settings on record: Canis lupus familiaris. It counts as functional, organism-based.
Data set [14] deals with Canis familiaris. Put plainly: Antianxiety activity in dog assessed as decrease in reactivity and ataxia at 1 mg/kg, po administered as single dose measured every 15 mins for 24 hrs. It counts as functional, organism-based. Details: dose 1 mg/kg. The conditions noted are these: Canis lupus familiaris.
Data set [15] relates to Felis catus. Nature of the data set: Sedative-hypnotic activity in cat assessed as increase in total sleep time at 1 mg/kg, po administered with diet for 15 to 20 mins measured for 14 hrs. It counts as functional.
The test system of data set [16] is Canis familiaris. Nature of the data set: Antianxiety activity in dog assessed as decrease in reactivity at 0.1 mg/kg, po administered as single dose measured every 15 mins for 24 hrs. It counts as functional, organism-based. Further details: dose 0.1 mg/kg. The settings on record: Canis lupus familiaris.
A further data set has as its system Rattus norvegicus. Nature of the data set: Analgesic activity in po dosed Sprague-Dawley rat assessed as increase in pain threshold measured at 15 to 90 mins by tail-flick test. It counts as functional.
Data set [17] deals with Mus musculus. Put plainly: Anticonvulsant activity in mouse assessed as protection against audiogenic seizure at 30 mg/kg, po administered for 1 hr prior to testing relative to control. It counts as functional.

With `CCCCCC(C)C(C)c1cc(O)c2c(c1)OC(C)(C)C1=C2CCC1` (stereo not given), the result in the data set with Mus musculus [1], with Canis familiaris [8] and with Canis familiaris [9] was Active. In addition, the values for the Activity in the data set with Mus musculus [2] and in the data set with Mus musculus [3] were 1% and 33%, respectively. Further, the ED50 in the data set with Mus musculus [4] stood at 25.3 mg/kg; in the data set with Mus musculus [5], 45.1 mg/kg. The results for the Time in the data set with Felis catus [6] and in the data set with Felis catus [7] were 65 min and 59 min, respectively. The LD50 at 168 h in data set [10] is more than 500 mg/kg.
For `CCCCCC(C)C(C)c1cc(O)c2c(c1)OC(C)(C)C1=C2C(C)CS1` (stereo not given), the outcome in the data set on Mus musculus [1], with Canis familiaris [13] and in the data set on Canis familiaris [14] was Active. Further, the Activity in the data set with Mus musculus [2] and in the data set with Mus musculus [3] was 33% each time. Also, the ED50 came to 4.7 mg/kg with Mus musculus [4] and 1.4 mg/kg in the data set on Mus musculus [5]. Besides, the values for the Time in the data set on Felis catus [11] and in the data set with Felis catus [12] were 21 min and 50 min, respectively. For the same compound, in [10], the LD50 at 168 h was more than 500 mg/kg.
In the case of `CCCCCC(C)C(C)c1cc(O)c2c(c1)OC(C)(C)C1=C2CCS1` (stereo not given), the outcome with Mus musculus [1], in the data set with Canis familiaris [16] and in the data set on Canis familiaris [9] was Active. The Activity in the data set with Mus musculus [2] and with Mus musculus [3] was 33% each time. Besides, the Time was found to be 30 min with Felis catus [15] and 31 min with Felis catus [6]. In addition, the LD50 at 168 h in data set [10] was more than 500 mg/kg.
Take `CCCCCC(C)C(C)c1cc(O)c2c(c1)OC(C)(C)C1=C2CC(C)(C)S1` (stereo not given): the result with Mus musculus [1] and in the data set on Canis familiaris [9] was Active. Besides, the Activity with Mus musculus [2] and in the data set on Mus musculus [3] was 1% throughout. Also, the ED50 in the data set with Mus musculus [4] was more than 40 mg/kg. Besides, in data set [10], the LD50 at 168 h was more than 500 mg/kg.
As for `CCCCCC(C)C(C)c1cc(O)c2c(c1)OC(C)(C)C1=C2CC(C)(C)C1` (stereo not given), the outcome with Mus musculus [1] and in the data set on Canis familiaris [9] was Active. Further, in the data set on Mus musculus [2], the result was inactive. Besides, the Activity in the data set with Mus musculus [3] worked out at 33%. Besides, the ED50 in the data set on Mus musculus [4] and in the data set with Rattus norvegicus was more than 40 mg/kg throughout. In addition, the 50% lethal dose (LD50) at 168 h in data set [10] was more than 500 mg/kg.
On to `CCCCCC(C)C(C)c1cc(O)c2c(c1)OC(C)(C)C1=C2CC(C)S1` (stereo not given), for which the result with Mus musculus [1] and in the data set with Canis familiaris [9] was Active. The results for the Activity in the data set on Mus musculus [2] and in the data set on Mus musculus [3] were 1% and 33%, respectively. In the data set with Mus musculus [4], the ED50 was found to be 34 mg/kg. Moreover, the median lethal dose (LD50) at 168 h in data set [10] is more than 500 mg/kg.
For the compound `CCCCCC(C)C(C)c1cc(O)c2c(c1)OC(C)(C)C1=C2CC(C)CC1` (stereo not given), the result in the data set on Mus musculus [1], in the data set with Canis familiaris [14] and in the data set on Canis familiaris [9] was Active. The Activity in the data set on Mus musculus [2] and in the data set with Mus musculus [3] was 66% each time. The figures for the ED50 in the data set with Mus musculus [4] and in the data set on Mus musculus [5] were 19.6 mg/kg and 12.4 mg/kg, respectively. Further, the Time in the data set with Felis catus [7] came to 62 min. The LD50 at 168 h in [10] was more than 500 mg/kg.
In the case of `CCCCCC(C)C(C)c1cc(O)c2c(c1)OC(C)(C)C1=C2C(C)CCC1` (stereo not given), the outcome with Mus musculus [1], in the data set with Canis familiaris [14] and in the data set with Canis familiaris [9] was Active. The Activity in the data set on Mus musculus [17] and in the data set on Mus musculus [3] was 33% in each case. Further, the 50% effective dose (ED50) with Mus musculus [4] came to 10.5 mg/kg; in the data set with Mus musculus [5], 25 mg/kg. Further, the Time with Felis catus [7] is given as 54 min. Also, the LD50 at 168 h in [10] was more than 500 mg/kg.
Consider `CCCCCC(C)C(C)c1cc(O)c2c(c1)OC(C)(C)C1=C2C(C)CC1` (stereo not given), for which the result in the data set with Mus musculus [1], in the data set on Canis familiaris [14] and in the data set with Canis familiaris [9] was Active. For the same compound, the Activity in the data set on Mus musculus [2] and with Mus musculus [3] was 66% in each case. The median effective dose (ED50) in the data set on Mus musculus [4] stood at 13.3 mg/kg. For the same compound, the Time with Felis catus [7] is recorded as 58 min. Moreover, the LD50 at 168 h in [10] was more than 500 mg/kg.
Consider `CCCCCC(C)C(C)c1cc(O)c2c(c1)OC(C)(C)C1=C2CC(C)C1` (stereo not given), for which the outcome with Mus musculus [1], in the data set on Canis familiaris [14] and in the data set on Canis familiaris [9] was Active. Further, the outcome in the data set on Mus musculus [2] was inactive. For the same compound, the Activity in the data set on Mus musculus [3] came to 1%. Also, in the data set on Mus musculus [4], the median effective dose (ED50) amounted to 22.6 mg/kg. Also, the 50% lethal dose (LD50) at 168 h in data set [10] is more than 500 mg/kg.
